From patent publication US6576263B2, “Delivery systems using preformed biodegradable polymer compositions and methods” (3M Innovative Properties Company, priority 2000, dated 2003) come the findings set out here.

Holding throughout (format): physicochemical
The nature of series [1]: Release of 5-fluorouracil from plug made with 5FU mixed with the crosslinker and albumin. To be noted: over an 8-hr period; 5FU added with crosslinker, PBS pH 7.4, room temperature.
Experimental: 136 mg of PEG-(SS)2 crosslinker was dissolved in 1 ml of a 1.04 mg/ml 5-Fluorouracil solution. This solution was then mixed into 1 ml of 30% albumin solution (see Example 2) already in a 5-ml form. The resulting hydrogel plug was removed from the form after 15 minutes and cut into three equal sized pieces (approximately 0.5 cm in thickness). Each piece was then placed into a vial and 4 ml of a PBS buffer (pH 7.4) added at sample time 0 (t0). The vials were maintained at room temperature and were shaken continuously. At each sample time, the entire content of the vial was removed and replaced with 4 ml of fresh PBS. Samples were taken at 1 hr, 2 hr, 4 hr, and 8 hr.
Series [2] in a line: Release of 5FU from albumin plugs containing alginic acid without added calcium. The conditions noted are these: over a 5-hr period; alginate/5FU without calcium in albumin plug, PBS pH 7.4. As to the method: (§1) One milliliter of 1.04 mg/ml 5-fluorouracil was mixed with 30 mg of alginic acid. The pH of the mixture was brought to 6.8, and then placed into a vacuum desiccator with DRIERITE to dry for 24 hr. The resulting alginate/5FU film was ground up and mixed into the 30% albumin solution (see Example 2) just prior to being placed into the 5 ml syringe forms and crosslinked with an equivalent volume of PEG-(SS)2 crosslinker (136 mg/ml). Each plug was placed into a separate vial, and 5 ml of phosphate buffered saline (PBS), at pH 7.4, was added at sample time 0 (t0). The vials were maintained at room temperature and were shaken continuously. At each sample time, the entire content of the vial was removed and replaced with 5 ml of fresh PBS. Samples were taken at 1 hr, 2 hr, 3 hr, 4 hr, 5 hr, and 24 hr.
The 5FU was analyzed as in Example 1.

The nature of series [3]: Release of 5FU from preformed, dried albumin/PEG-(SS)2 plugs reconstituted with 5FU solution. To be noted: rehydrated albumin/PEG-(SS)2 plug, PBS pH 7.4, room temperature. How it is done:
Two polymer plugs were preformed in a modified 5-milliliter (ml) poly syringe, wherein the syringe barrel was cut to form an open cylindrical receptacle, and then by mixing 0.5 ml of 29% albumin solution (obtained from American Biological Technology, Seguin, Tex. or by diafiltration (Procedure B) as described above) and 0.5 ml of 136 mg/ml PEG-(SS)2 crosslinker. After crosslinking was complete (15 minutes) the plugs were removed from the syringe and pushed out. The polymer plugs were dried under vacuum for 24 hours (hr). The plugs were reconstituted with […] of a 5FU solution (1.04 mg/ml from Sigma Chemical Co, St. Louis, Mo.) so that each plug contained a total of 187.6 micrograms (μg), or 165.5 μg of 5FU. Each plug was placed into a separate vial, and five ml of phosphate buffered saline (PBS), at pH 7.4, were added at sample time 0 (t0). The vials were maintained at room temperature and were shaken continuously. At each sample time, the entire content of the vial was removed and replaced with 5 ml of fresh PBS. Samples were taken at 0.25 hr, 0.5 hr, 1 hr, 2 hr, 3 hr, 4 hr, 5 hr, 6 hr, and 24 hr. Ana of 5FU was analyzed by high-pressure liquid chromatography, following the method of Bernatchez et al., Int. J. Pharm., 106, 161-166 (1994).

Series [4] in a line: Release of 5FU from albumin plugs containing alginic acid with added calcium. To be noted: over a 5-hr period; alginate/Ca/5FU in albumin plug, PBS pH 7.4. How it is done:
as §1, with “One ml of 1.04” for “One milliliter of 1.04”, “6.8, and 150 μl of a saturated calcium chloride/water solution was added to gel the alginate. The gel was divided into 3 approximately equal volumes and then placed” for “6.8, and then placed”, “The resulting alginate/Ca/5FU films were ground up” for “The resulting alginate/5FU film was ground up”, “into the 5-ml forms and” for “into the 5 ml syringe forms and”, “vial, and five mls of phosphate” for “vial, and 5 ml of phosphate”
The 5FU was analyzed as described in Example 1.

Series [5] is described as follows: Release of cefazolin from albumin plugs made with 4-arm PEG crosslinker. To be noted: albumin/4-arm PEG plug, PBS pH 7.4, room temperature. As to the method: Two polymer plugs were preformed from 0.5 ml of 30% albumin solution (Procedure B) and 0.5 ml of 110 mg/ml 4-arm-N-hydroxysuccinimidyl ester of poly(ethylene glycol)-succinate crosslinker (Shearwater Polymers, Inc., Huntsville, Ala.). Approximately 10 mg of sodium cefazolin (Sigma Chemical. Co., St. Louis, Mo.) was dissolved in the albumin before the crosslinker was added to form the cylindrical plugs. Each formed plug was placed into a separate vial, and 8 mls of phosphate buffered saline (PBS) at pH 7.4 was added at sample time (t0). The vials were maintained at room temperature and were shaken continuously. At each sample time, the entire content of the vial was removed and replaced with eight ml of fresh PBS. Samples were taken at 0.25, 0.5, 1, 2, 3, 4, 5, and 24 hours and approximately every 24 hours thereafter up to 144 hours.
Cefazolin was analyzed by high-pressure liquid chromatography, following the method of Liang et al, J. Chromatog. B., 656, 45-465 (1994). The column was a Waters C-18 (3.9×300 mm) column sold under the tradename MICROBONDAPAK and the column temperature was maintained at 25° C. The mobile phase consisted of 0.02M sodium phosphate buffer (pH=5.0 and methanol (77:23). The wavelength used for detection was 270 nm and the column flow rate was 1.0 ml/min.

As for `O=c1[nH]cc(F)c(=O)[nH]1` [Example 5FU, 5-fluorouracil], the 5-fluorouracil released entry in series [1] is on record as “about 55%”. Also, the 5FU released result in series [2] is recorded as “about 40%”; in series [4] it was “about 60%”. For the same compound, in series [3], the “time period over which 5FU was released” value worked out at 5 h.

Turning to `Cc1nnc(SCC2=C(C(=O)O)N3C(=O)[C@@H](NC(=O)Cn4cnnn4)[C@H]3SC2)s1` [cefazolin], the total cefazolin released in series [5] (over 144 hours) was determined as 95.6%. The cefazolin released entry in series [5] (over the first 5-hour time period) was “approximately 67%”.
